Paper PMC8611036, “An integrated method for optimized identification of effective natural inhibitors against SARS-CoV-2 3CLpro” (Scientific Reports, 2021)
Where two headings read alike, the source gives them in different places.

Key:
SARS-CoV-2 3CLpro [1] = target: T1, SARS-CoV-2 3CLpro (Severe acute respiratory syndrome coronavirus 2, UniProt P0DTD1); assay: SARS-CoV-2 3CLpro inhibition assay (fluorogenic substrate Dabcyl-[…]-Edans); format: biochemical
SARS-CoV-2 3CLpro [2] = target: T1, SARS-CoV-2 3CLpro; assay: Surface plasmon resonance analysis (Biacore T200); format: binding
SARS-CoV-2 3CLpro [3] = target: T1, SARS-CoV-2 3CLpro; conditions: cited from earlier work; for IC50: unit not printed (pIC50 corresponds to µM)
SARS-CoV 3CLpro [4] = format: biochemical; conditions: activity class by pIC50 threshold 6
SARS-CoV-2 3CLpro [5] = target: T1, SARS-CoV-2 3CLpro; assay: Literature-collected IC50 of SARS-CoV-2 3CLpro inhibitors (test set); format: biochemical; conditions: class from pIC50 of the literature IC50
SARS-CoV 3CLpro [6] = conditions: SARS-CoV 3CLpro inhibitors (training set), ref: per compound, cited from earlier work
[7] = from literature IC50, ref Zhu, Wei et al. ACS pharmacology & translational science vol. 3,5 (2020): 1008-1016
[8] = ref Zhu, Wei et al. ACS pharmacology & translational science vol. 3,5 (2020): 1008-1016
[9] = from literature IC50, ref Jo, Seri et al. Journal of enzyme inhibition and medicinal chemistry vol. 35,1 (2020): 1539-1544
[10] = ref Jo, Seri et al. Journal of enzyme inhibition and medicinal chemistry vol. 35,1 (2020): 1539-1544
[11] = SARS-CoV-2 3CLpro in vitro dose–response inhibition, read-out: IC50
[12] = SPR, 25 °C, 3CLpro-his captured on CM7 chip, read-out: KD

Compound `O=c1cc(-c2ccc(O)cc2)oc2c([C@@H]3O[C@H](CO)[C@@H](O)[C@H](O)[C@H]3O)c(O)c([C@@H]3O[C@H](CO)[C@@H](O)[C@H](O)[C@H]3O)c(O)c12` [Vicenin-2, vicenin-2] has an IC50 (SARS-CoV-2 3CLpro [1]) of 38.9 µM and a Kd (SARS-CoV-2 3CLpro [2]) of 8.58 µM.

In the case of `O=C1/C(=C\c2ccc(-c3ccccc3)o2)C(c2ccccc2)=NN1c1ccccc1` [CMP10], the pIC50 (SARS-CoV-2 3CLpro [3]; [7]) is listed as 4.652, the pIC50 (SARS-CoV-2 3CLpro [3]; test set (SARS-CoV-2 3CLpro inhibitors), collected from literature) is listed as 4.652 and the IC50 (SARS-CoV-2 3CLpro [3]; [8]) is listed as 22.3 µM. For the same compound, the “Inact.(<6)/Act.(>=6)” value (SARS-CoV 3CLpro [4]) was “Inact. (Inact.(<6))” and the “Inact.(<6)/Act.(>=6)” value (SARS-CoV-2 3CLpro [5]) was “Inact. (Inact.(<6))”.

In the case of `COc1ccc(-c2cc(=O)c3c(O)c(OC)c(OC4OC(COC5OC(C)C(O)C(O)C5O)C(O)C(O)C4O)cc3o2)cc1` (stereo not drawn) [CMP84], the pIC50 (SARS-CoV-2 3CLpro [3]; [9]) is listed as 4.287, the IC50 (SARS-CoV-2 3CLpro [3]; [10]) is listed as 51.6 µM and the “Inact.(<6)/Act.(>=6)” value (SARS-CoV-2 3CLpro [5]) is listed as “Inact. (Inact.(<6))”.

For `O=C(O)c1ccccc1-c1ccc(/C=C2\C(=O)N(c3ccccc3)N=C2c2ccccc2)o1` [CMP13, reference compound], the pIC50 (SARS-CoV-2 3CLpro [3]; [7]) is listed as 5.4828, the IC50 (SARS-CoV-2 3CLpro [3]; [8]) is listed as 3.29 µM and the “Inact.(<6)/Act.(>=6)” value (SARS-CoV 3CLpro [4]) is listed as “Inact. (Inact.(<6))”. For the same compound, the pIC50 (SARS-CoV 3CLpro [6]; from literature IC50) was 4.3851, the IC50 (SARS-CoV 3CLpro [6]; literature values) was 41.2 µM and the “Inact.(<6)/Act.(>=6)” value (SARS-CoV-2 3CLpro [5]) was “Inact. (Inact.(<6))”.

`O=c1c(O[C@@H]2O[C@H](CO[C@@H]3O[C@H](CO)[C@@H](O)[C@H](O)[C@H]3O)[C@@H](O)[C@H](O)[C@H]2O)c(-c2ccc(O)cc2)oc2cc(O)cc(O)c12` [Kaempferol-3-O-gentiobioside, kaempferol-3-O-gentiobioside] showed an IC50 (SARS-CoV-2 3CLpro [1]; [11]) of 35.9 µM and a Kd (SARS-CoV-2 3CLpro [2]; [12]) of 2.69 µM.

In the case of `COc1cc(-c2oc3cc(O)cc(O)c3c(=O)c2O[C@@H]2O[C@H](CO[C@@H]3O[C@@H](C)[C@H](O)[C@@H](O)[C@H]3O)[C@@H](O)[C@H](O)[C@H]2O)ccc1O` [Narcissoside, narcissoside], the IC50 (SARS-CoV-2 3CLpro [1]; [11]) is reported as 38.1 µM and the Kd (SARS-CoV-2 3CLpro [2]; [12]) is reported as 10 µM.

In the case of `O=c1c(O)c(-c2ccc(O)cc2)oc2c(O)c(O)cc(O)c12` [CMP83], the pIC50 (SARS-CoV-2 3CLpro [3]; [9]) is listed as 4.268, the IC50 (SARS-CoV-2 3CLpro [3]; [10]) is listed as 53.9 µM and the “Inact.(<6)/Act.(>=6)” value (SARS-CoV-2 3CLpro [5]) is listed as “Inact. (Inact.(<6))”.

With `C[C@@H]1O[C@@H](OC[C@H]2O[C@@H](Oc3c(-c4ccc(O)cc4)oc4cc(O)cc(O)c4c3=O)[C@H](O)[C@@H](O)[C@@H]2O)[C@H](O)[C@H](O)[C@H]1O` [MOL002693] the Kd (SARS-CoV-2 3CLpro [2]) was 3.63 µM.

Compound `C[C@@H]1O[C@@H](O[C@@H]2[C@@H](O)[C@H](OCCc3ccc(O)c(O)c3)O[C@H](CO)[C@H]2OC(=O)/C=C/c2ccc(O)c(O)c2)[C@H](O)[C@H](O)[C@H]1O` [MOL003333] has a Kd (SARS-CoV-2 3CLpro [2]) of 0.409 µM.

`Cc1cc(O)c2c(=O)c3c(O)cc(O)c4c5c(O)cc(O)c6c(=O)c7c(O)cc(C)c8c1c2c(c34)c(c78)c65` [MOL002067] showed a Kd (SARS-CoV-2 3CLpro [2]) of 19.9 µM.

`O=c1cc(-c2ccc(O)cc2)oc2c([C@@H]3O[C@H](CO)[C@@H](O)[C@H](O)[C@H]3O)c(O)c([C@@H]3OC[C@H](O)[C@H](O)[C@H]3O)c(O)c12` [Isoschaftoside, isoschaftoside] showed an IC50 (SARS-CoV-2 3CLpro [1]) of 30.2 µM and a Kd (SARS-CoV-2 3CLpro [2]) of 11.4 µM.

In the case of `C[C@@H](CC[C@]1(O)O[C@H]2C[C@H]3[C@@H]4CC[C@@H]5C[C@@H](O[C@@H]6O[C@H](CO)[C@H](O)[C@H](O)[C@H]6O[C@@H]6O[C@H](CO)[C@@H](O)[C@H](O)[C@H]6O)CC[C@]5(C)[C@H]4CC[C@]3(C)[C@H]2[C@@H]1C)CO[C@@H]1O[C@H](CO)[C@@H](O)[C@H](O)[C@H]1O` [MOL004515], the Kd (SARS-CoV-2 3CLpro [2]) is reported as 7.2 µM.

`O=C(/C=C/c1ccc(O)c(O)c1)O[C@@H]1C[C@@](OC(=O)/C=C/c2ccc(O)c(O)c2)(C(=O)O)C[C@@H](O)[C@@H]1O` [MOL007326] gave a Kd (SARS-CoV-2 3CLpro [2]; [12]) of 20.3 µM.
